For 24 compounds, Ki, Selectivity ratio and Kd results are on record in ChEMBL document CHEMBL1268906, “Discovery of a potent and selective Bcl-2 inhibitor using SAR by NMR” (Bioorg Med Chem Lett, 2010).

Test [1] addresses T1, Apoptosis regulator Bcl-2 (Homo sapiens, UniProt P10415). The experiment in a line: Inhibition of Bcl-2 by fluorescence polarization assay. (In general: In fluorescence polarisation assays a small probe gives low polarisation when free and higher when bound to something large.)
Test [2] can be described thus: Selectivity ratio of Kd for Bcl-XL to Kd for Bcl-2.
For test [3], the target named is T1, Apoptosis regulator Bcl-2. The experiment in a line: Binding affinity to Bcl-2 by NMR titration assay.
The target of test [4] is T1, Apoptosis regulator Bcl-2. The experiment in a line: Binding affinity to Bcl-2 by NMR titration assay in presence of 500 uM 1,1-bis(4-chlorophenyl)-3-(dimethylamino)propan-1-ol.
A further test concerns the target Bcl-2-like protein 1 (Homo sapiens, UniProt Q07817). The experiment in a line: Binding affinity to Bcl-XL by NMR titration assay.

Chain of Bcl-2-like protein 1 (Q07817 whole entry): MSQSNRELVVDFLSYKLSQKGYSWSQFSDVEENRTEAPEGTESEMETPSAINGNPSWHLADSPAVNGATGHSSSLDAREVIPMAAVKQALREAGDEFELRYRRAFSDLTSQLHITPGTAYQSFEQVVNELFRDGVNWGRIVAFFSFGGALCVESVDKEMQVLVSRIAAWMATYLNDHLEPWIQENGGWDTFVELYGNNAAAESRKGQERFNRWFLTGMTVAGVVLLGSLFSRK
T1 sequence (P10415 whole entry): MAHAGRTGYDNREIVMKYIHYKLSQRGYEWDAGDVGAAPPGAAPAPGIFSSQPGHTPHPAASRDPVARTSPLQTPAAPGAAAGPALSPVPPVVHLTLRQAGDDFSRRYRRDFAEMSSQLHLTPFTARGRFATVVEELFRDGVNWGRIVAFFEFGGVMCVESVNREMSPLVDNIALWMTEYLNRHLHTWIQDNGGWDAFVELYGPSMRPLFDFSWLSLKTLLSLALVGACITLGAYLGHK

One may read the Ki as a measure of affinity in units of concentration, obtained from inhibition or displacement. `CN(C)CCCC(O)(c1ccccc1)c1cccc(OCCc2cccc(-c3ccc(C(=O)O)cc3)c2)c1` (stereo not drawn) yielded a Ki in test [1] of 5 µM.
On the same count and under the same terms, as for `CN(C)CCCC(O)(c1ccccc1)c1cccc(OCCc2ccc(-c3ccc(C(=O)O)cc3)cc2)c1` (stereo not drawn), the figure is 4.6 µM.
Still for that read-out and setting: as for `CN(C)CCCC(O)(c1ccccc1)c1ccc(OCCc2cccc(-c3ccc(C(=O)O)cc3)c2)cc1` (stereo not drawn), the figure is 8 µM; as for `CN(C)CCCC(O)(c1ccccc1)c1ccc(OCCOc2ccc(-c3ccc(C(=O)O)cc3)cc2)cc1` (stereo not drawn), more than 1 µM.
`O=C(O)c1ccc(-c2ccc(OCCc3cc(C(O)(CCN4CCOCC4)c4ccc(Br)cc4)ccc3Cl)cc2)cc1` (stereo not drawn) returned a Ki in test [1] of 0.2 µM.
In the case of `CN(C)CCCC(O)(c1ccccc1)c1ccc(OCCc2ccc(-c3ccc(C(=O)O)cc3)cc2)cc1` (stereo not drawn), the Ki in test [1] was found to be 12 µM.
Same read-out and setting: as for `CC(C)(C)c1ccc(C(O)(CCN2CCOCC2)c2ccc(Cl)c(CCOc3ccc(-c4ccc(C(=O)O)cc4)cc3)c2)cc1` (stereo not drawn), the figure is 0.11 µM; as for `CN(C)CCCC(O)(c1ccccc1)c1cccc(CCOc2ccc(-c3ccc(C(=O)O)cc3)cc2)c1` (stereo not drawn), 3.4 µM.
As to `CC(C)(C)c1ccc(C(O)(CCN2CCCC2)c2ccc(Cl)c(CCOc3ccc(-c4ccc(C(=O)O)cc4)cc3)c2)cc1` (stereo not drawn), the affinity in test [1] corresponds to a Ki of 0.04 µM. Moreover, the Selectivity ratio in test [2] was 1000.
For `CN(C)CCCC(O)(c1ccccc1)c1ccc(OCc2ccc(-c3ccc(C(=O)O)cc3)cc2)cc1` (stereo not drawn), in test [1], the Ki was determined as 83 µM.
The compound `O=C(O)c1ccc(-c2ccc(OCCc3cc(C(O)(CCN4CCOCC4)c4ccc(Cl)cc4)ccc3Cl)cc2)cc1` (stereo not drawn) returned an inhibitory constant (Ki) in test [1] of 0.22 µM.
For orientation: Kd means a measure of binding affinity in units of concentration. Turning to `CCc1ccc(-c2ccc(C(=O)O)cc2)cc1`, the Kd in test [3] is 300 µM; in test [4] it was more than 1000 µM.
Regarding `CN(C)CCCC(O)(c1ccccc1)c1ccc(OCc2cccc(-c3ccc(C(=O)O)cc3)c2)cc1` (stereo not drawn), affinity in test [1] was put at a Ki of 5.8 µM.
Take `CN1CCN(C(c2ccccc2)c2ccc(Cl)cc2)CC1` (stereo not drawn) [CHLORCYCLIZINE]: the dissociation constant (Kd) was found to be 60 µM in test [3] and 700 µM at Bcl-2-like protein 1.
In test [1], `CC(O)(c1ccc(Cl)cc1)c1ccc(Cl)c(CCOc2ccc(-c3ccc(C(=O)O)cc3)cc2)c1` (stereo not drawn) gave an inhibition constant Ki of 0.46 µM.
`O=C(O)c1ccc(-c2ccc(F)cc2)cc1`: the Kd was found to be 400 µM in test [3] and 430 µM in test [4].
In turn, `NC[C@](O)(c1ccccc1)c1ccc(F)cc1Cl` gave a Kd in test [3] of 250 µM.
Regarding `CCc1cccc(-c2ccc(C(=O)O)cc2)c1`, the figures for the Kd in test [3] and in test [4] were 100 µM and 20 µM, respectively.
Regarding `CN(C)CCCC(O)(c1ccccc1)c1cccc(OCc2cccc(-c3ccc(C(=O)O)cc3)c2)c1` (stereo not drawn), the Ki in test [1] turned out to be 20 µM.
With `CN(C)CCC[C@@](O)(c1ccccc1)c1ccc(Cl)cc1`, the figures for the Kd (in test [3]; on Bcl-2-like protein 1) were 80 µM and 500 µM, respectively.
In test [1], `CN(C)CCCC(O)(c1ccccc1)c1cccc(OCc2ccc(-c3ccc(C(=O)O)cc3)cc2)c1` (stereo not drawn) registered an inhibitory constant (Ki) of 5.2 µM.
The compound `CN(C)CCCC(O)(c1ccccc1)c1cccc(OCCOc2ccc(-c3ccc(C(=O)O)cc3)cc2)c1` (stereo not drawn) yielded a Ki in test [1] of more than 1 µM.
With `CN(C)CCCC(O)(c1ccc(Cl)cc1)c1ccc(Cl)cc1`, the Kd amounted to 20 µM in test [3] and 450 µM at Bcl-2-like protein 1. The Selectivity ratio in test [2] was found to be 20.
For `CN(C)CCCC(O)(c1ccccc1)c1ccccc1`, the figures for the Kd (in test [3]; on Bcl-2-like protein 1) were 200 µM and 5000 µM, respectively.
